Test results: patent US20110166142A1, “2-SUBSTITUTED ISOFLAVONOID COMPOUNDS, MEDICAMENTS AND USES” (priority 2007, published 2011)
Where two headings read alike, the source gives them in different places.

What was measured:
[1] = Free radical scavenging (DPPH); conditions: for EC50: 0.1 mM DPPH in ethanol, 20 minutes, absorbance 517 nm, concentration causing 0.6 change in absorbance, read-out: Free radical scavenging ability EC50; for free radical scavenging activity: DPPH
Method: The antioxidant (free radical trapping) activity of test compounds was assessed using the stable free radical compound 2,2-diphenyl-1-picrylhydrazyl (DPPH). A stock solution of DPPH was prepared at a concentration of 0.1 mM in ethanol and mixed for 10 minutes prior to use. Test compounds at a concentration of 100 μM were reacted with DPPH for 20 minutes, after which time the absorbance at 517 nm was determined and the change in absorbance compared to a reagent blank (DPPH with ethanol alone). A dose response curve was produced for those compounds with free radical scavenging activity (ΔAbs>0.3) at 100 μM. The IC50 value was estimated as the concentration of test compound that caused a 0.6 change in absorbance (with 1.2 absorbance units representing total scavenging of the DPPH radical).

HPAC = assay: Anti-cancer activity, pancreatic HPAC (MTT); assay type: cell-based; conditions: Homo sapiens, 120 h, 5 days, Geometric Mean ± SD (Log-normal Distribution)
Method: The human pancreatic cancer cell line, HPAC (CRL-2119) was routinely cultured in DMEM/Hams F-12 1:1 (Gibco) and supplemented with 15 mM HEPES, 0.002 mg/ml insulin (Sigma, Cat#I9278), 0.005 mg/ml transferrin (Sigma, Cat#T8158), 40 ng/ml hydrocortisone (Sigma, Cat#H0135) and 10 ng/ml epidermal growth factor (Sigma, Cat#E4269).
(§1) All cultures were supplemented with 10% FBS (Gibco, Cat#10099-158), 5000 U/ml penicillin and 5 mg/ml streptomycin (Gibco, Cat#15070), and cultured at 37° C. in a humidified atmosphere of 5% CO2.
(§2) IC50 values were determined for each cell line. Cells were seeded in 96-well plates at an appropriate cell density as determined from growth kinetics analysis and cultured for 5 days in the absence and presence of the test compounds. Cell proliferation was assessed after the addition of 20 μl of 3-4,5 dimethylthiazol-2,5-diphenyl tetrazolium bromide (MTT, 2.5 mg/ml in PBS, Sigma) for 3-4 hrs at 37° C. according to manufacturer's instructions. IC50 values were calculated from semi-log plots of % of control proliferation on the y-axis against log dose on the x-axis.

RAW 264.7 macrophage = assay: Toxicity to normal cells: RAW 264.7 macrophage (MTT); assay type: cell-based; conditions: Mus musculus, RAW264.7, 24 hours, single assay, maximum concentration 150 μM
Method: (§3) In a single assay, RAW 264.7 cells were seeded in 96-well plates at an appropriate cell density as determined from growth kinetics analysis and cultured for 24 hours in the absence and presence of the test compounds. Test compounds were added in serial two-fold dilutions from 150 μM in triplicate.
(§4) Cell proliferation was assessed after the addition of 20 μl of 3-4,5 dimethylthiazol-2,5-diphenyl tetrazolium bromide (MTT, 5 mg/ml in PBS, Sigma) for 3 hrs at 37° C. according to manufacturer's instructions, by comparing mean absorbance values of test compounds with that of the control.

MDA-MB-468 = assay: Anti-cancer activity, breast MDA-MB-468 (MTT); assay type: cell-based; conditions: Homo sapiens, MDA-MB-468, 120 h, 5 days, Geometric Mean ± SD (Log-normal Distribution)
MM200 = assay: Anti-cancer activity, melanoma MM200 (MTT); assay type: cell-based; conditions: 120 h, 5 days, Geometric Mean ± SD (Log-normal Distribution)
[2] = test system: various cell lines representative of different cancer indications; assay: Anti-cancer activity, summary over several cell lines; assay type: cell-based
Method: as §2

NCI-H460 = assay: Anti-cancer activity, lung NCI-H460 (MTT); assay type: cell-based; conditions: Homo sapiens, NCI-H460, 120 h, 5 days, Geometric Mean ± SD (Log-normal Distribution)
Method: The large cell lung cancer cell line NCI-H460 was cultured in RPMI 1640 medium additionally supplemented with 4.5 g/L glucose (Sigma, Cat#G8769), 5.0 g/L sodium pyruvate, 5 g/L sodium bicarbonate and buffered with 10 mM HEPES.
as §1, §2

PC-3 = assay: Anti-cancer activity, prostate PC-3 (MTT); assay type: cell-based; conditions: Homo sapiens, PC-3, 120 h, 5 days, Geometric Mean ± SD (Log-normal Distribution)
Method: (§5) The colon adeno-carcinoma cell line HT-29 (HTB-38™) and prostate adenocarcinoma cell line PC-3 (CRL-435™) were cultured in RPMI 1640 medium (Gibco, Cat#21870-076).
as §1, §2

CP70 = assay: Anti-cancer activity, ovarian CP70 (MTT); assay type: cell-based; conditions: 5 days, Geometric Mean ± SD (Log-normal Distribution)
Method: The ovarian cancer cell line, CP70 was obtained as a gift from Dr. Gil Mor (Yale University) and routinely cultured in DMEM/Hams F-12 1:1 (Gibco, Cat#11320-082) supplemented with 10 mM HEPES (Sigma, Cat#H0887), 1× non essential amino acids (Sigma, Cat#M7145), 5.0 g/L sodium bicarbonate (Sigma, Cat#S5761), and 1 mM sodium pyruvate (Sigma, Cat#S8636).
as §1, §2

[3] = test system: Neonatal foreskin fibroblasts (NFF); assay: Toxicity to normal cells: neonatal foreskin fibroblasts (MTT); assay type: cell-based; conditions: Homo sapiens, Fibroblast, 120 h, 5 days, mean ± SD, maximum concentration 150 μM
Method: (§6) Neonatal foreskin fibroblasts (NFF), a gift from Dr. Peter Parsons (Queensland Institute of Medical Research) were cultured in RPMI supplemented with 10% FBS (Gibco, Australia), penicillin (100 U/ml), streptomycin ([…]), L-glutamine (2 mM) and sodium bicarbonate (1.2 g/L), and cultured at 37° C. in a humidified atmosphere of 5% CO2 for 5 days. Test compounds were added in serial two-fold dilutions from 150 μM in triplicate. These assays were run twice.
as §4

HT-29 = assay: Anti-cancer activity, colorectal HT-29 (MTT); assay type: cell-based; conditions: Homo sapiens, HT-29, 120 h, 5 days, Geometric Mean ± SD (Log-normal Distribution)
Method: as §5, §1, §2

[4] = test system: panel of normal, non-transformed cells; assay: Toxicity to normal cells, overall statement (NFF and RAW 264.7); assay type: cell-based; conditions: maximum concentration examined 150 μM
Method: as §6, §3, §4

LPS-induced NO synthesis = assay: LPS-induced NO (nitrite) production in RAW 264.7 macrophages (Griess Reaction); assay type: cell-based, mouse; conditions: 10 μM; FIG. 3
Method: The mouse macrophage cell line RAW 264.7 was cultured in DMEM supplemented with foetal bovine serum (FBS), 2 mM glutamine and 50 U/ml penicillin/streptomycin (pen/strep). Cells were treated with either test compound (in 0.025% DMSO) or vehicle alone, and added one hour before 50 ng/ml LPS. After incubation for 24 hrs, culture media was collected for PGE2 or TXB2 measurement by ELISA (Cayman Chemical). The effect of test compounds at 10 μM on cell viability was examined using an MTT assay.
Nitrite concentration is a quantitative indicator of NO production (Wang et al. 2002) and was determined by the Griess Reaction (Coligan et al. 1994). Briefly, 100 μL of Griess reagent was added to 50 μL of each supernatant in duplicate in two separate assays, run as for the examination of PGE2 etc. The absorbance at 550 nm was measured, and nitrite concentrations were determined against a standard curve of sodium nitrite.

[5] = read-out: IC50 RAW 264.7 macrophage Unstimulated
[6] = read-out: IC50 RAW 264.7 macrophage with LPS
[7] = read-out: IC50 range against MDA-MB-468 and PC-3 cell lines

Compound	EC50 [1] [µM]	IC50 (HPAC) [µM]	IC50 (RAW 264.7 macrophage; [5]) [µM]	IC50 (RAW 264.7 macrophage; [6]) [µM]	IC50 (MDA-MB-468) [µM]	IC50 (MM200) [µM]	IC50 (NCI-H460) [µM]	IC50 (PC-3) [µM]	IC50 [3] [µM]	toxicity in the tests performed [4]	IC50 [2, 7] [µM]	further results
C=CCC1Oc2cc(O)ccc2C=C1c1ccc(O)cc1 (stereo not drawn) [Compound 1]	22.8	5.21 ± 1.88	4.7	2.2	3.25 ± 1.51	6.37 ± 1.39	6.72 ± 1.05	3.96 ± 2.02	14.7 ± 3.05	markedly toxic	–	IC50 ([2]; read-out: IC50 range against all cell lines tested): 3 to 10 µM; IC50 (CP70; 120 h): 8.39 ± 2.8 µM; IC50 (HT-29): 9.36 ± 2.88 µM
CCC1Oc2cc(O)ccc2C=C1c1ccc(O)cc1 (stereo not drawn) [Compound 2]	–	56 ± 1.03	15.2	90.6	2.41 ± 1.26	70.9 ± 1	–	4.14 ± 1.04	97.8 ± 1	mild to moderate toxicity	2 to 29	–
CC1Oc2cc(O)ccc2C=C1c1ccc(O)cc1 (stereo not drawn) [Compound 3]	–	59.3 ± 1.28	9.3	102	5.18 ± 1.09	69.4 ± 1.22	12.6 ± 1.1	12 ± 1.22	140.3 ± 1.07	mild to moderate toxicity	–	IC50 ([2]; read-out: IC50 range against CP70, MDA-MB-468, NCI-H460 and PC-3 cell lines): 5 to 13 µM; IC50 (CP70; 120 h): 8.39 ± 1.13 µM; IC50 (HT-29): 110.1 ± 1.03 µM
CCC1Oc2cc(O)ccc2CC1c1ccc(O)cc1 (stereo not drawn) [Compound 4]	–	103 ± 1.16	28.3	> 150	7.23 ± 1.07	–	–	16.6 ± 1.08	122.2 ± 1	mild to moderate toxicity	2 to 29	–
Cc1c(O)ccc2c1OC(C)C(c1ccc(O)cc1)=C2 (stereo not drawn) [Compound 5]	44.8	84.4 ± 1.34	> 150	> 150	16.7 ± 1.18	–	41.1 ± 1	29 ± 1.05	> 150	no toxicity	2 to 29	–
CC1Oc2cc(O)ccc2C=C1c1cccc(O)c1 (stereo not drawn) [Compound 6]	49.6	74.6 ± 1.24	> 150	140	17 ± 1	137.8 ± 1.16	114.8 ± 1	31.7 ± 1.05	138.6 ± 1.05	mild to moderate toxicity	14 to 32	IC50 (CP70; 120 h): 72.9 ± 1.07 µM; IC50 (HT-29): ≥ 150 µM
Cc1cc(O)cc2c1C=C(c1ccc(O)cc1)C(C)O2 (stereo not drawn) [Compound 7]	38.4	60.5 ± 1.21	98.8	115	14.5 ± 1.07	102 ± 1.27	51.5 ± 1.03	31.9 ± 1.47	126.6 ± 1.01	mild to moderate toxicity	14 to 32	IC50 (CP70; 120 h): ~31 µM; IC50 (CP70): 31.1 ± 1.06 µM; IC50 (HT-29): ≥ 150 µM
CC1Oc2cc(O)ccc2CC1c1ccc(O)cc1 (stereo not drawn) [Compound 8]	–	≥ 150	> 150	> 150	66.3 ± 1.05	–	–	78.7 ± 1.26	> 150	no toxicity	–	activity against the cell lines tested ([2]; HPAC, MDA-MB-468 and PC-3): little activity
COC1Oc2cc(O)ccc2C=C1c1ccc(O)cc1 (stereo not drawn) [Compound 13, 4′,7-Dihydroxy-2-methoxy-isoflav-3-ene]	21.8	–	–	–	–	–	–	–	–	–	–	–
CCOC1Oc2cc(O)ccc2C=C1c1ccc(O)cc1 (stereo not drawn) [Compound 14, 2-Ethoxy-4′,7-dihydroxy-isoflav-3-ene]	24.1	–	–	–	–	–	–	–	–	–	–	–
Oc1ccc(C2=Cc3ccc(O)cc3OC2O)cc1 (stereo not drawn) [Compound 16, 2,4′,7-Trihydroxy-isoflav-3-ene]	–	–	–	–	–	–	–	–	–	–	–	melting point: > 325 °C
CCSC1Oc2cc(O)ccc2C=C1c1ccc(O)cc1 (stereo not drawn) [Compound 18, 2-Ethylthio-4′,7-dihydroxy-isoflav-3-ene]	20	–	–	–	–	–	–	–	–	–	–	–
Oc1ccc(C2=Cc3ccc(O)cc3OC2)cc1 [Compound 37-DHE, reference compound]	55.1	–	–	–	–	–	–	–	–	–	–	free radical scavenging activity [1]: only low activity; production of nitrite by macrophages stimulated by LPS (LPS-induced NO synthesis): did not inhibit
Oc1ccc([C@H]2COc3cc(O)ccc3C2)cc1 [Eq, equol, reference compound]	> 100	–	–	–	–	–	–	–	–	–	–	free radical scavenging activity [1]: not active; production of nitrite by macrophages stimulated by LPS (LPS-induced NO synthesis): did not inhibit
CC(=O)Oc1ccc(C2=Cc3ccc(OC(C)=O)cc3OC2C#N)cc1 (stereo not drawn) [Example 17, 4′,7-Diacetoxy-2-cyano-isoflav-3-ene]	–	–	–	–	–	–	–	–	–	–	–	melting point: 156 to 158 °C
CC(=O)Oc1ccc(C2=Cc3ccc(OC(C)=O)cc3OC2CNC(=O)OC(C)(C)C)cc1 (stereo not drawn) [Example 23, 4′,7-Diacetoxy-2-(N—(BOC)aminomethyl)-isoflav-3-ene]	–	–	–	–	–	–	–	–	–	–	–	melting point: 52 to 54 °C
